Values quoted from earlier work as cited in US20260022280A1, “LOW VOC SOLVENT CEMENT FORMULATION WITH REDUCED TOXICITY AND RAPID CURING” (Ashirvad Pipes Pvt Ltd, priority 2022, published 2026).
Read-outs that look alike come from different tables or passages of the source.

Tests used:
[1] = for ECHA Concern: Yes / No
Mouse = details: 4 h
[2] = solvents
Rat [3] = details: in vivo
[4] = total solubility parameter
Rat [5] = details: 4 h
Rat [6] = details: Rat male and female

Structure (SMILES) | ECHA Concern [1] | Vapour Pressure (at 20° C.) [mm Hg] | other results
CCN1CCCCCC1=O [N-ethyl caprolactam] | No |  | 
CCC(C)=O [MEK, Methyl Ethyl Ketone] |  | 15 | LC50 Inhalation (Mouse): 32.000 mg/m3; Density [2]: 0.80 g/cc
C[S+](C)[O-] [Dimethyl sulfoxide] | No | 0.44 | 
CO [Methanol] |  | 96.75 | 
COC(=O)OC [Dimethyl Carbonate] | No |  | Vapour Pressure ((25° C.)): 55.5 mm Hg
CC(=O)CCC(C)C [Methyl iso amyl ketone] | Yes | 4.5 | 
C1COCO1 [1,3 Dioxolane] |  |  | LD50 (Rat [3]; po): 5200 mg/kg
COC1CCCC1 [Cyclopentyl Methyl Ether] | No |  | Vapour Pressure ((25° C.)): 44.92 mm Hg
CC1CCCO1 (stereo not shown) [2-Methyl tetrahydrofuran] | No | 102 | 
CC(C)=O [ACE, Acetone] | No | 180 | SPo (Total) [4]: 9.8 (Cal/cm^3)^1/2; Density [2]: 0.78 g/cc
O=C1CCCO1 [γ-Butyrolactone] | No | 1.12 | 
O=C1CCCC1 [Cyclopentanone] | No | 11.4 | 
CCOC(C)=O [Ethyl acetate] | No | 75 | 
CC(=O)CC(C)=O [Acetylacetone] |  | 2.96 | 
CCO [Ethanol] | Yes | 43.5 | 
CCOC(C)OCC [1,1 Diethoxy ethane] | Yes | 20.25 | 
CC(=O)OC(C)(C)C [t-butyl acetate] | No |  | Vapour Pressure ((25° C.)): 47.25 mm Hg
COC(=O)CCCCC(=O)OC [Dimethyl adipate] | No | 0.06 | 
CCC(=O)CC [Diethyl ketone] | No | 15 | 
CCCCOC(C)=O [N-butyl acetate] | No |  | 
C1CCOC1 [THF, Tetrahydrofuran] | Yes | 145 | Vapour Pressure (at 20° C., listed as Tetrahydrofuran): 144.76 mm Hg; LC50 Inhalation (Rat [5]; Rat male and female): 4 h −> 16.9 mg/l; Hazard Classification & labelling ([1]; ECHA, harmonised classification / REACH registrations): suspected to be Carcinogenic; Density [2]: 0.88 g/cc
CN(C)C=O [Dimethylformamide] |  | 3.67 | 
CN1CCCC1=O [N-Methyl-2-Pyrrolidone] | Yes | 0.29 | 
CCCCCC(C)=O [Methyl amyl ketone] | No | 1.5 | 
COC(C)=O [N-methylacetate] | Yes | 173 | 
O=C1CCCCC1 [CYH, Cyclohexanone] | No | 3.75 | LD50 Inhalation (Rat [5]; Rat): 8000 ppm; SPo (Total) [4]: 9.6 (Cal/cm^3)^1/2; LD50 Oral (Rat [3]): 1544 mg/kg; LD50 Dermal (Rabbit): 947 mg/kg
CC(=O)C(C)C [Methyl iso propyl ketone] | No | 41.25 | 
CCOCCOCC [1,2 Diethoxy ethane] | Yes | 9 | 
CCCC(C)=O [MPK, Methyl Propyl Ketone] | No | 12 | LD50 Dermal (Rat [6]): > 6480 mg/kg; SPo (Total) [4]: 9.6 (Cal/cm^3)^1/2; LD50 Oral (Rat [3]): > 16000 mg/kg; Density [2]: 0.80 g/cc
